# Source: PMC11413854, “Reversible Control of Native GluN2B-Containing NMDA Receptors with Visible Light” (ACS Chemical Neuroscience, 2024)
# Where “and” joins values, the source holds several entries; their conditions need not be identical. Equal entries are not always repeated.
# Tested on: native NMDA currents of cultured cortical neurons
# Assay: Whole-cell patch-clamp of NMDA currents in cultured cortical neurons (DIV 6-8), spectral dependence of bound OptoNAM-3
# Format: cell-based, mouse
# Conditions: for inhibition of NMDA currents in cortical neurons: 2 µM
# Protocol: We then turned to native NMDA currents. We repeated these experiments on cultured cortical neurons at days in vitro [DIV] 6–8, a stage at which GluN2B-containing NMDARs form the major population of neuronal NMDARs.[48] On cortical neurons, 2 μM OptoNAM-3 induced 70% inhibition of NMDA-induced currents in the dark. The lower inhibitory effect of trans-OptoNAM-3 on neurons compared to HEK cells is most likely due to the mixture of NMDAR subtypes expressed in neurons.[48] […] This effect is furthermore partially reversible thanks to the use of 550 nm light.
# Mice were housed in the IBENS rodent central facility duly accredited by the French Ministry of Agriculture. All experiments were performed in compliance with French and European regulations on care and protection of laboratory animals (EU Directive 2010/63, French Law 2013–118, February 6, 2013), and were approved by local ethics committees and by the French Ministry of Research and Innovation (authorization numbers #05137.02, APAFIS #28867-2020121814485893). Dissociated cultures of cortical neurons were prepared from mouse embryos at E18 as described previously.[84] After removing meninges, cortices were placed in ice-cold HBSS solution. Cell dissociation was performed individually for cortices of each embryo. Cortices were incubated in 2.5% trypsin at 37 °C for 7 min, rinsed three times with 37 °C phosphate buffer saline, and finally suspended in plating medium (Neurobasal Medium, supplemented with 0.5 mM L-glutamine, 1% B27 supplement, and penicillin/streptomycin). The neurons were further dissociated by trituration, and cells were plated on poly-D-lysine coated coverslips in 24-well culture dishes at a density of 3 × 10^5 cells per well for the excitotoxicity test and that of 1 × 10^5 cells per well for patch clamp experiments. Cultures were incubated at 37 °C in a humidified atmosphere of 5% CO2. Cells were fed by changing 1/2 medium to fresh Neurobasal medium every 4 days. For the excitotoxicity experiments, after 5 days in vitro, growth of non-neuronal cells was halted by a 24 h exposure to FDX ([…] 5-fluoro-2′-deoxyuridine). The cultures were used for experiments after 6 to 14 days in vitro (DIV6–8 for patch clamp experiments and DIV14 for excitotoxicity tests).
# Whole-cell patch-clamp recordings on neurons were performed 6 to 8 days after the culturing step (DIV 6–8) using the same recording conditions as for HEK cells. Recordings were performed at a holding potential of −60 mV and at room temperature. Currents were elicited by NMDA (300 μM) and D-serine (50 μM) to specifically activate NMDARs.
# OptoNAM-3 was perfused in the dark onto the patched neuron (Figure 5A–C). […] Stopping perfusion ensures that trans-OptoNAM coming from the perfusion tube […] with the wavelength PSS during the illumination procedure.
# OptoNAM-3 was perfused in the dark onto the patched neuron (Figures 4G,H and 5F,H). […] Then, wavelengths from 435 to 580 nm were applied and the inhibition recovery was monitored.
# For the trans to cis and cis to trans isomerization study in the binding site (Figure 5C,H respectively), we decided to normalize (scale) the inhibition values of OptoNAM-3 at different wavelengths by the inhibition induced by OptoNAM-3 at 365 nm and in the dark since these two conditions represent respectively the minimum and maximum of the inhibition. We followed this equation: [drawing 2] where m ∈ [r365,rdark] is the measurement (inhibition) to be scaled, r365 and rdark correspond to the minimum (365 nm state inhibition) and maximum (dark state inhibition) of the measurement, respectively, and t365 and tdark represent the minimum and maximum of the range (OptoNAM-3 365 nm PSS and dark PSS mean inhibition). To reduce the decreasing effect of normalization onto SEM, the SEMs represented in the figures were calculated with the data injected in the first part of the equation ( [drawing 3] ). […]
smiles,measurement,setting,value
"c1ccc(/N=N/c2ccc(CCNc3ccncc3)cc2)cc1 [OptoNAM-3, (E)-N-(4-(Phenyldiazenyl)phenethyl)pyridin-4-amine]",inhibition of NMDA currents in cortical neurons,365 nm irradiation on the cell (Fig 5C),27% ± 2%
same,inhibition of NMDA currents in cortical neurons,550 nm illumination from UV state (Fig 4H),52% ± 3% and 52.150%
same,inhibition of NMDA currents in cortical neurons,550 nm post 365 nm illumination (Fig 5H),55% ± 4%
same,inhibition of NMDA currents in cortical neurons,"dark, NMDA 300 µM + D-serine 50 µM",70% ± 3% and 70.580%
same,inhibition of NMDA currents in cortical neurons,under 365 nm illumination (Fig 4H),25% ± 4% and 25.090%
same,"proportion of cis isomer, bound OptoNAM-3 365 nm PSS","365 nm on the cell, calculated from inhibition",~90%
same,"proportion of cis isomer, bound OptoNAM-3","460 nm light from dark state, calculated from inhibition",~68%
same,trans-to-cis isomerization in the binding site,550 and 580 nm applied from the dark state,did not induce visible trans-to-cis isomerization
same,"% Inhibition (normalized), mean","Figure 5C series (from dark PSS), 365 nm",27.607%
same,"% Inhibition (normalized), mean","Figure 5C series (from dark PSS), 435 nm",44.741%
same,"% Inhibition (normalized), mean","Figure 5C series (from dark PSS), 460 nm",50.648%
same,"% Inhibition (normalized), mean","Figure 5C series (from dark PSS), 490 nm",64.437%
same,"% Inhibition (normalized), mean","Figure 5C series (from dark PSS), 525 nm",71.178%
same,"% Inhibition (normalized), mean","Figure 5C series (from dark PSS), 550 nm",73.370%
same,"% Inhibition (normalized), mean","Figure 5C series (from dark PSS), 580 nm",73.446%
same,"% Inhibition (normalized), mean","Figure 5C series, dark",73.585%
same,"% Inhibition (normalized), mean","Figure 5H series (from 365 nm PSS), 365 nm",27.795%
same,"% Inhibition (normalized), mean","Figure 5H series (from 365 nm PSS), 435 nm",27.982%
same,"% Inhibition (normalized), mean","Figure 5H series (from 365 nm PSS), 460 nm",29.032%
same,"% Inhibition (normalized), mean","Figure 5H series (from 365 nm PSS), 490 nm",44.081%
same,"% Inhibition (normalized), mean","Figure 5H series (from 365 nm PSS), 525 nm",43.503%
same,"% Inhibition (normalized), mean","Figure 5H series (from 365 nm PSS), 550 nm",54.910%
same,"% Inhibition (normalized), mean","Figure 5H series (from 365 nm PSS), 580 nm",47.001%
same,"% Inhibition (normalized), mean","Figure 5H series, dark",73.111%
same,"proportion of trans isomer, bound OptoNAM-3","at 365, 435 and 460 nm post 365 nm illumination, calculated from inhibition",~10%
